Source: publication PMC10294378, “Synthesis, α-Glucosidase inhibitory activity and docking studies of Novel Ethyl 1,2,3-triazol-4-ylmethylthio-5,6-diphenylpyridazine-4-carboxylate derivatives” (BMC Chemistry, 2023)
Entries after “also recorded” stand apart in the source; their conditions may differ.

What was measured:
[1] = molecular target: rat small intestine α-glucosidase; assay: Rat α-glucosidase assay (4-nitrophenol release from pNPG); type: biochemical; settings: for IC50: rat small intestine α-glucosidase, means of three replicates ± standard deviation; for α-glucosidase inhibitory activity (in words): SAR discussion
Experimental: Based on the reported method of Lossow et al., rat small intestine α-glucosidase (EC 3.2.1.20) was prepared. The in-vitro activity was determined by the measurement of 4-nitrophenol which was released from para-nitrophenyl α-D glucopyranoside. The preparation of 200 µL was performed as follows: the enzyme solution (190 µL, 0.15 units/ml), different concentrations of target compounds (1, 10, 20, 50, 100, 500 and 1000 µM (5 µL), potassium phosphate buffer. Final compounds were dissolved in DMSO (not exceed than 5% of final volume) and pre-incubated at 37 °C, p-nitrophenyl glucopyranoside and then substrate (5 µL, 3 mM), was added to the enzyme solution and incubated for further one hour at 37 °C. Finally, by using Cytation 3 hybrid microplate reader (BioTek, USA) any change in the absorbance was measured at 405 nm. By using GraphPadprism 6.0 (SanDiego, California, USA) (https://www.graphpad.com/scientificsoftware/prism/) was used to obtain IC50 values of tested compounds.

HDF = assay: Cytotoxicity against normal cell line; type: cell-based
α-glucosidase = assay: Kinetic analysis (Lineweaver-Burk and secondary plot); type: biochemical, rat
Experimental: Modes of enzyme inhibition were determined by recording the effect of various concentrations of the substrates 1, 2.5, 5 or 10 mM pNPG for α-glucosidase on Lineweaver–Burk plots using calculated Vmax and Km. For inhibition test of α-glucosidase: the concentrations applied for compounds 10k was 0.1, 1, 5 and 10 nM. Inhibition constants (Ki) were determined by depicting the secondary plot of Km against various concentrations of inhibitors.
The activity of […] (PNPG) was investigated in the presence and absence of compound 10k.

Row | SMILES | melting point | IC50 [1] | α-glucosidase inhibitory activity (in words) [1] | mode of inhibition (α-glucosidase) | folds more active than standard drug (acarbose) ([1]; ratio of IC50 values against acarbose) | cytotoxicity (HDF)
1 | CCOC(=O)c1c(SCc2cn(CC(=O)Nc3ccc(F)cc3)nn2)nnc(-c2ccccc2)c1-c1ccccc1 [10 g, Ethyl 3-(((1-(2-((4-fluorophenyl)amino)-2-oxoethyl)-1H-1,2,3-triazol-4-yl)methyl)thio)-5,6-diphenylpyridazine-4-carboxylate] | 211 to 213 °C | 37.5 ± 7.2 µM | – | – | – | –
2 | CCOC(=O)c1c(SCc2cn(CC(=O)Nc3ccc(C(C)C)cc3)nn2)nnc(-c2ccccc2)c1-c1ccccc1 [Compound 10d, Ethyl 3-(((1-(2-((4-isopropylphenyl)amino)-2-oxoethyl)-1H-1,2,3-triazol-4-yl)methyl)thio)-5,6-diphenylpyridazine-4-carboxylate] | 183 to 185 °C | 86.5 ± 7.3 µM | – | – | – | –
3 | CCOC(=O)c1c(SCc2cn(CC(=O)Nc3cccc(OC)c3)nn2)nnc(-c2ccccc2)c1-c1ccccc1 [Compound 10e, Ethyl 3-(((1-(2-((3-methoxyphenyl)amino)-2-oxoethyl)-1H-1,2,3-triazol-4-yl)methyl)thio)-5,6-diphenylpyridazine-4-carboxylate] | 155 to 157 °C | 35.7 ± 3.9 µM | – | – | – | –
4 | CCOC(=O)c1c(SCc2cn(CC(=O)Nc3cc(Cl)cc(Cl)c3)nn2)nnc(-c2ccccc2)c1-c1ccccc1 [10 L, Ethyl 3-(((1-(2-((3,5-dichlorophenyl)amino)-2-oxoethyl)-1H-1,2,3-triazol-4-yl)methyl)thio)-5,6-diphenylpyridazine-4-carboxylate] | 185 to 187 °C | 14.1 ± 3.3 µM | active | – | – | –
5 | CCOC(=O)c1c(SCc2cn(CC(=O)Nc3ccc(Cl)c(Cl)c3)nn2)nnc(-c2ccccc2)c1-c1ccccc1 [10 m, Ethyl 3-(((1-(2-((3,4-dichlorophenyl)amino)-2-oxoethyl)-1H-1,2,3-triazol-4-yl)methyl)thio)-5,6-diphenylpyridazine-4-carboxylate] | 166 to 168 °C | 27.7 ± 3 µM | active | – | – | –
6 | CCOC(=O)c1c(SCc2cn(CC(=O)Nc3ccccc3)nn2)nnc(-c2ccccc2)c1-c1ccccc1 [Compound 10a, Ethyl 3-(((1-(2-oxo-2-(phenylamino)ethyl)-1H-1,2,3-triazol-4-yl)methyl)thio)-5,6-diphenylpyridazine-4-carboxylate] | 147 to 149 °C | 35.6 ± 8.9 µM | – | – | – | –
7 | CCOC(=O)c1c(SCc2cn(CC(=O)Nc3cccc(C)c3)nn2)nnc(-c2ccccc2)c1-c1ccccc1 [Compound 10b, Ethyl 3-(((1-(2-oxo-2-(m-tolylamino)ethyl)-H-1,2,3-triazol-4-yl)methyl)thio)-5,6-diphenylpyridazine-4-carboxylate] | – | 58.9 ± 7.5 µM | – | – | – | –
8 | CCOC(=O)c1c(SCc2cn(CC(=O)Nc3ccc([N+](=O)[O-])cc3)nn2)nnc(-c2ccccc2)c1-c1ccccc1 [Compound 10q, Ethyl 3-(((1-(2-((4-nitrophenyl)amino)-2-oxoethyl)-1H-1,2,3-triazol-4-yl)methyl)thio)-5,6-diphenylpyridazine-4-carboxylate] | 221 to 223 °C | 47.1 ± 5.6 µM | active | – | – | –
9 | CCOC(=O)c1c(SCc2cn(CC(=O)Nc3ccc(Br)cc3)nn2)nnc(-c2ccccc2)c1-c1ccccc1 [Compound 10k, Ethyl 3-(((1-(2-((4-bromophenyl)amino)-2-oxoethyl)-1H-1,2,3-triazol-4-yl)methyl)thio)-5,6-diphenylpyridazine-4-carboxylate] | 224 to 226 °C | 1.7 ± 0.12 µM | – | uncompetitive | 100 folds | not toxic; also recorded: No toxicity
10 | CCOC(=O)c1c(SCc2cn(CC(=O)Nc3ccc(OC)cc3)nn2)nnc(-c2ccccc2)c1-c1ccccc1 [Compound 10f, Ethyl 3-(((1-(2-((4-methoxyphenyl)amino)-2-oxoethyl)-1H-1,2,3-triazol-4-yl)methyl)thio)-5,6-diphenylpyridazine-4-carboxylate] | 230 to 232 °C | 25.2 ± 2.5 µM | – | – | – | –
11 | CCOC(=O)c1c(SCc2cn(CC(=O)Nc3cccc(Cl)c3)nn2)nnc(-c2ccccc2)c1-c1ccccc1 [Compound 10i, Ethyl 3-(((1-(2-((3-chlorophenyl)amino)-2-oxoethyl)-1H-1,2,3-triazol-4-yl)methyl)thio)-5,6-diphenylpyridazine-4-carboxylate] | 200 to 202 °C | > 250 µM | no inhibitory activity | – | – | –

More lines, main results first:

Row | melting point | IC50 [1] | α-glucosidase inhibitory activity (in words) [1] | mode of inhibition (α-glucosidase) | folds more active than standard drug (acarbose) ([1]; ratio of IC50 values against acarbose) | SMILES | cytotoxicity (HDF)
12 | 195 to 197 °C | 21 ± 5.3 µM | – | – | – | CCOC(=O)c1c(SCc2cn(CC(=O)Nc3ccc(Cl)cc3)nn2)nnc(-c2ccccc2)c1-c1ccccc1 [Compound 10j, Ethyl 3-(((1-(2-((4-chlorophenyl)amino)-2-oxoethyl)-1H-1,2,3-triazol-4-yl)methyl)thio)-5,6-diphenylpyridazine-4-carboxylate] | –
13 | – | 170 ± 23.1 µM | – | – | – | C[C@H]1O[C@H](O[C@H]2[C@H](O)[C@@H](O)[C@@H](O[C@H]3[C@H](O)[C@@H](O)C(O)O[C@@H]3CO)O[C@@H]2CO)[C@H](O)[C@@H](O)[C@@H]1N[C@H]1C=C(CO)[C@@H](O)[C@H](O)[C@H]1O (stereo partly drawn) [Acarbose, reference compound] | –
14 | 161 to 163 °C | 14.9 ± 1.9 µM | – | – | – | CCOC(=O)c1c(SCc2cn(CC(=O)Nc3ccccc3Cl)nn2)nnc(-c2ccccc2)c1-c1ccccc1 [10 h, Ethyl 3-(((1-(2-((2-chlorophenyl)amino)-2-oxoethyl)-1H-1,2,3-triazol-4-yl)methyl)thio)-5,6-diphenylpyridazine-4-carboxylate] | –
15 | 201 to 203 °C | 84 ± 13.2 µM | – | – | – | CCOC(=O)c1c(SCc2cn(CC(=O)Nc3cccc([N+](=O)[O-])c3)nn2)nnc(-c2ccccc2)c1-c1ccccc1 [Compound 10p, Ethyl 3-(((1-(2-((3-nitrophenyl)amino)-2-oxoethyl)-1H-1,2,3-triazol-4-yl)methyl)thio)-5,6-diphenylpyridazine-4-carboxylate] | –
16 | 207 to 209 °C | > 250 µM | – | – | – | CCOC(=O)c1c(SCc2cn(CC(=O)Nc3ccc(C)cc3)nn2)nnc(-c2ccccc2)c1-c1ccccc1 [Compound 10c, Ethyl 3-(((1-(2-oxo-2-(p-tolylamino)ethyl)-1H-1,2,3-triazol-4-yl)methyl)thio)-5,6-diphenylpyridazine-4-carboxylate] | –
17 | 212 to 214 °C | > 250 µM | no activity | – | – | CCOC(=O)c1c(SCc2cn(CC(=O)Nc3ccc([N+](=O)[O-])c(C)c3)nn2)nnc(-c2ccccc2)c1-c1ccccc1 [Compound 10r, Ethyl 3-(((1-(2-((3-methyl-4-nitrophenyl)amino)-2-oxoethyl)-1H-1,2,3-triazol-4-yl)methyl)thio)-5,6-diphenylpyridazine-4-carboxylate] | –
18 | 196 to 198 °C | > 250 µM | – | – | – | CCOC(=O)c1c(SCc2cn(CC(=O)Nc3cccc(C#N)c3)nn2)nnc(-c2ccccc2)c1-c1ccccc1 [Compound 10n, Ethyl 3-(((1-(2-((3-cyanophenyl)amino)-2-oxoethyl)-1H-1,2,3-triazol-4-yl)methyl)thio)-5,6-diphenylpyridazine-4-carboxylate] | –
